Results on 13 molecules are retold here after ChEMBL document CHEMBL1926682, “Triterpene galactosides of the pouoside class and corresponding aglycones from the sponge Lipastrotethya sp” (J Nat Prod, 2011).

Structures are written as SMILES. In brackets after ≈: the same amount, converted by molar mass.

The first assay concerns K562. As to the kind of experiment: Cytotoxicity against human K562 cells by spectrophotometric analysis. It counts as functional, cell-based.
Settings: not given
Turning to `CC(=O)O[C@@]1(C)CC[C@H](O)C(C)(C)[C@@H]1CC/C(C)=C/C[C@@H](O)/C=C(\C)[C@@H](O)C[C@@H]1C(C)=CCC(=O)C1(C)C` [POUOGENIN A], the IC50 (in general, the concentration at which inhibition is half-maximal) turned out to be 14.8 µM.

In the case of `CC(=O)O[C@@]1(C)CC[C@H](O)C(C)(C)[C@@H]1CC/C(C)=C/C[C@@H](O)/C=C(\C)C(=O)C[C@H]1C(C)(C)C(=O)C=C[C@]1(C)O` [POUOGENIN E], 18.9 µM corresponded to half-maximal inhibition (IC50).

Turning to `COc1cccc2c1C(=O)c1c(O)c3c(c(O)c1C2=O)C[C@@](O)(C(=O)CO)C[C@@H]3O[C@H]1C[C@H](N)[C@H](O)[C@H](C)O1` [DOXORUBICIN], the IC50 is 13.6 µM.

`C=C1CC[C@H](O[C@@H]2O[C@H](CO)[C@H](O)[C@H](O)[C@H]2O)C(C)(C)[C@@H]1CC/C(C)=C/C[C@H](/C=C(\C)[C@H](C[C@@H]1C(C)=CCC(=O)C1(C)C)OC(C)=O)OC(C)=O` [POUOSIDE I] registered an IC50 greater than 100 µM.

In turn, `CC(=O)O[C@@H](C[C@@H]1C(C)=CCC(=O)C1(C)C)/C(C)=C/[C@@H](C/C=C(\C)CC[C@H]1C(C)(C)[C@@H](O)CC[C@]1(C)OC(C)=O)OC(C)=O` [POUOGENIN B] returned an IC50 of 38.9 µM.

`CC(=O)O[C@H]1[C@H](O[C@H]2CC[C@](C)(OC(C)=O)[C@@H](CC/C(C)=C/C[C@H](/C=C(\C)[C@H](C[C@@H]3C(C)=CCC(=O)C3(C)C)OC(C)=O)OC(C)=O)C2(C)C)O[C@H](CO)[C@H](O)[C@@H]1O` [POUOSIDE D] returned an IC50 of 12.5 µM.

`CC(=O)O[C@@]1(C)CC[C@H](O[C@@H]2O[C@H](CO)[C@H](O)[C@H](O)[C@H]2O)C(C)(C)[C@@H]1CC/C(C)=C/C[C@@H](O)/C=C(\C)[C@@H](O)C[C@@H]1C(C)=CCC(=O)C1(C)C` [POUOSIDE F] gave an IC50 greater than 100 µM.

In the case of `CC(=O)O[C@@H](C[C@@H]1C(C)=CCC(=O)C1(C)C)/C(C)=C/[C@@H](C/C=C(\C)CC[C@H]1C(C)(C)[C@@H](O[C@@H]2O[C@H](CO)[C@H](O)[C@H](O)[C@H]2O)CC[C@]1(C)OC(C)=O)OC(C)=O` [POUOSIDE A], half-maximal inhibition (IC50) required 17 µM.

Molecule `CC(=O)O[C@@H](C[C@@H]1C(C)=CCC(=O)C1(C)C)/C(C)=C/[C@H](O)C/C=C(\C)CC[C@H]1C(C)(C)[C@@H](O)CC[C@]1(C)OC(C)=O` [POUOGENIN C] yielded an IC50 of 14.6 µM.

In turn, `CC(=O)O[C@@H](C[C@H]1C(C)(C)C(=O)C=C[C@]1(C)O)/C(C)=C/[C@H](O)C/C=C(\C)CC[C@H]1C(C)(C)[C@@H](O[C@@H]2O[C@H](CO)[C@H](O)[C@H](O)[C@H]2O)CC[C@]1(C)OC(C)=O` [POUOSIDE G] had an IC50 greater than 100 µM.

For the molecule `CC(=O)O[C@@]1(C)CC[C@H](O[C@@H]2O[C@H](CO)[C@H](O)[C@H](O)[C@H]2O)C(C)(C)[C@@H]1CC/C(C)=C/C[C@@H](O)/C=C(\C)C(=O)C[C@H]1C(C)(C)C(=O)C=C[C@]1(C)O` [POUOSIDE H], the IC50 was greater than 100 µM.

In the case of `CC(=O)O[C@@H](C[C@H]1C(C)(C)C(=O)C=C[C@]1(C)O)/C(C)=C/[C@H](O)C/C=C(\C)CC[C@H]1C(C)(C)[C@@H](O)CC[C@]1(C)OC(C)=O` [POUOGENIN D], the midpoint of inhibition, the IC50, lay at 27.5 µM.

`CC(=O)O[C@@H](C[C@@H]1C(C)=CCC(=O)C1(C)C)/C(C)=C/[C@H](O)C/C=C(\C)CC[C@H]1C(C)(C)[C@@H](O[C@@H]2O[C@H](CO)[C@H](O)[C@H](O)[C@H]2O)CC[C@]1(C)OC(C)=O` [POUOSIDE B] registered an IC50 greater than 100 µM.

For another assay, the system named is P388. Description: Cytotoxicity against mouse P388 cells. In kind it is functional. As to conditions: read-out: ED50 (the source's name).
Consider `CC(=O)O[C@@H](C[C@@H]1C(C)=CCC(=O)C1(C)C)/C(C)=C/[C@@H](C/C=C(\C)CC[C@H]1C(C)(C)[C@@H](O[C@@H]2O[C@H](CO)[C@H](O)[C@H](O)[C@H]2O)CC[C@]1(C)OC(C)=O)OC(C)=O` [POUOSIDE A], for which the EC50 came out at 1.5 µg/mL (≈ 1.93 µM).
